From patent US20240409585A1, “MACROCYCLIC IMMUNOMODULATORS” (priority 2021, published 2024)
Like-named read-outs stand apart in the source and are kept apart here. Numbered stars: 1 amine (or outer) side, 2 acyl side, 3 side chain; on linkers, the order of the positions; unused ones are H or OH. Bridge positions count the residues as written; N and C are the ends. Square brackets hold non-standard residues; d marks the D form. Peptide text beside a SMILES is read from it. * marks the point of attachment. X26 = O=C([C@H](Cc1ccc(-c2cccc(S(=O)(=O)N3CCOCC3)c2)cc1)N[*:1])[*:2]; X51 = O=C([C@H](Cc1cccc(-c2cccc(S(=O)(=O)N3CCOCC3)c2)c1)N[*:1])[*:2]; Bip(4'-COOH) = N[C@@H](Cc1ccc(-c2ccc(C(=O)O)cc2)cc1)C(=O)O; Bip(4'-NHAc) = CC(=O)Nc1ccc(-c2ccc(C[C@H](N)C(=O)O)cc2)cc1; Phe(3-CH2NH2) = O=C([C@H](Cc1cccc(CN[*:3])c1)N[*:1])[*:2]; X17 = Nc1ccc(-c2cccc(C[C@H](N[*:1])C(=O)[*:2])c2)cn1; Phe(3-CF3) = N[C@@H](Cc1cccc(C(F)(F)F)c1)C(=O)O; Ala(morpholin-4-yl) = N[C@@H](CN1CCOCC1)C(=O)O; Phe(4-COOH) = N[C@@H](Cc1ccc(C(=O)O)cc1)C(=O)O; Bip = N[C@@H](Cc1ccc(-c2ccccc2)cc1)C(=O)O; Abu(3R-NH2) = C[C@@H](N)[C@H](N)C(=O)O; Phe(3-Me) = Cc1cccc(C[C@H](N)C(=O)O)c1; Val(3-OH) = CC(C)(O)[C@H](N)C(=O)O; hPhe = N[C@@H](CCc1ccccc1)C(=O)O; 2Pal = N[C@@H](Cc1ccccn1)C(=O)O; Nva(5-OH) = N[C@@H](CCCO)C(=O)O; Cha = N[C@@H](CC1CCCCC1)C(=O)O; Carboxymethyl = O=C(O)C*; NMeA = CN[C@@H](C)C(=O)O; Orn = NCCC[C@H](N)C(=O)O; Dab = NCC[C@H](N)C(=O)O; Dap = NC[C@H](N)C(=O)O

Target: T1, Alexa fluor-647 labeled human PD-L1-Ig binding to Jurkat cell line over-expressing human PD-1 (Homo sapiens, UniProt Q15116)
T1 construct: expressed in transfected cells; host or cells: Jurkat
Test: Jurkat-PD-1 Cell Binding High-Content Screening Assay (CBA): Method 3 (Alexa fluor-647 labeled PD-L1-Ig)
Details: Jurkat-PD-1 cells, Alexa fluor-647 labeled PD-L1-Ig 177 nM
Method: Jurkat-PD-1 Cell Binding High-Content Screening Assay (CBA): Method 3
Alexa fluor-647 was covalently linked to the Ig epitope tag of human PD-L1-Ig and fluorescently labeled PD-L1-Ig was used for the binding studies with a Jurkat cell line over-expressing human PD-1. Briefly, 2.5×10^4 Jurkat-hPD-1 cells were seeded into 384 well plates in 20 μl of RPMI supplemented with 10% fetal calf serum. 12.5 nl of compound was added to cells followed by incubation at 37° C. for 2 hours. Then, 10 ul of Alexa fluor-647 labeled PD-L1-Ig (177 nM final), diluted in RPMI supplemented with 10% fetal calf serum was added to the cells and incubated for 1 hour. Cells were then fixed with 4% paraformaldehyde containing 10 μg/ml Hoechst 33342 and then washed 3× in 100 ul PBS and 100 ul of PBS was added in the final step. Data was collected using the Operetta High Content Imager and the data was analyzed using the columbus software.

[1] = head μM, read-out: CBA Method 3 μM

T1 sequence (Q15116 25-288): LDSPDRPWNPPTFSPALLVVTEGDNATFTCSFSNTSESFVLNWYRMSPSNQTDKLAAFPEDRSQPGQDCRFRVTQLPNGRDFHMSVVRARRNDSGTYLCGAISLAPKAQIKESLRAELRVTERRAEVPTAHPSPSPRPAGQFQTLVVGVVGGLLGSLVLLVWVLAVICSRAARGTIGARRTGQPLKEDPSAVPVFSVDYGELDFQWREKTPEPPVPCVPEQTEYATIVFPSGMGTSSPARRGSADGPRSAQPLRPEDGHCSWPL

Row | SMILES | IC50 [1] | IC50 (nM, read-out: CBA Method 3)
1 | Cc1cccc(C[C@@H]2NC(=O)[C@H](CC(=O)O)NC(=O)[C@H](Cc3ccc(OCC(=O)O)cc3)NC(=O)[C@H](CN3CCOCC3)NC(=O)CSC[C@@H](C(=O)N[C@@H](CCN)C(N)=O)NC(=O)[C@H](CCCN)NC(=O)[C@H](C(C)C)NC(=O)[C@H](CC3CCCCC3)NC(=O)[C@H](CCN)NC(=O)[C@@H](CC(C)C)NC(=O)[C@H](C)N(C)C(=O)[C@H](CCC(N)=O)NC(=O)[C@H](Cc3ccc(-c4ccccc4)cc3)NC(=O)[C@H](Cc3cccc(-c4cccc(S(=O)(=O)N5CCOCC5)c4)c3)NC2=O)c1 [Example 5106] ({CH2CO}-[Ala(morpholin-4-yl)]Y(Carboxymethyl)D[Phe(3-Me)][X51][Bip]Q[NMeA][dL][Dab][Cha]V[Orn]C[Dab]-NH2; thioether N-14) | 0.06 µM | 
2 | CC(=O)Nc1ccc(-c2ccc(C[C@@H]3NC(=O)[C@H](Cc4cccc(C)c4)NC(=O)[C@H](CC(=O)O)NC(=O)[C@H](Cc4ccc(-c5ccc(C(=O)O)cc5)cc4)NC(=O)[C@H](CN4CCOCC4)NC(=O)CSC[C@@H](C(=O)N[C@@H](CCN)C(N)=O)NC(=O)[C@H](CO)NC(=O)[C@H](C(C)(C)O)NC(=O)[C@H](CC4CCCCC4)NC(=O)[C@H](Cc4cnc[nH]4)NC(=O)[C@@H](CC(C)C)NC(=O)[C@H](C)N(C)C(=O)[C@H](Cc4ccc(C(=O)O)cc4)NC(=O)[C@H](Cc4ccc(-c5ccccc5)cc4)NC3=O)cc2)cc1 [Example 5123] ({CH2CO}-[Ala(morpholin-4-yl)][Bip(4'-COOH)]D[Phe(3-Me)][Bip(4'-NHAc)][Bip][Phe(4-COOH)][NMeA][dL]H[Cha][Val(3-OH)]SC[Dab]-NH2; thioether N-14) |  | 0.0094 µM
3 | Cc1cccc(C[C@@H]2NC(=O)[C@H](CC(=O)O)NC(=O)[C@H](Cc3ccc(-c4ccc(C(=O)O)cc4)cc3)NC(=O)[C@H](CN3CCOCC3)NC(=O)CSC[C@@H](C(=O)N[C@@H](CCN)C(N)=O)NC(=O)[C@H](Cc3cnc[nH]3)NC(=O)[C@H](C(C)(C)O)NC(=O)[C@H](CC3CCCCC3)NC(=O)[C@H](CCN)NC(=O)[C@@H](CC(C)C)NC(=O)[C@H](C)N(C)C(=O)[C@H](Cc3ccc(C(=O)O)cc3)NC(=O)[C@H](Cc3ccc(-c4ccccc4)cc3)NC(=O)[C@H](Cc3ccc(-c4ccc(C(=O)O)cc4)cc3)NC2=O)c1 [Example 5133] ({CH2CO}-[Ala(morpholin-4-yl)][Bip(4'-COOH)]D[Phe(3-Me)][Bip(4'-COOH)][Bip][Phe(4-COOH)][NMeA][dL][Dab][Cha][Val(3-OH)]HC[Dab]-NH2; thioether N-14) | 0.2 µM | 
4 | Cc1cccc(C[C@@H]2NC(=O)[C@H](CC(=O)O)NC(=O)[C@H](Cc3ccc(OCC(=O)O)cc3)NC(=O)[C@H](CN3CCOCC3)NC(=O)CSC[C@@H](C(=O)N[C@@H](CCN)C(N)=O)NC(=O)[C@H](CCCN)NC(=O)[C@H](C(C)C)NC(=O)[C@H](CC3CCCCC3)NC(=O)[C@H](CCN)NC(=O)[C@@H](CC(C)C)NC(=O)[C@H](C)N(C)C(=O)[C@H](CCC(N)=O)NC(=O)[C@H](Cc3ccc(-c4ccccc4)cc3)NC(=O)[C@H](Cc3ccc(-c4cccc(S(=O)(=O)N5CCOCC5)c4)cc3)NC2=O)c1 [Example 5107] ({CH2CO}-[Ala(morpholin-4-yl)]Y(Carboxymethyl)D[Phe(3-Me)][X26][Bip]Q[NMeA][dL][Dab][Cha]V[Orn]C[Dab]-NH2; thioether N-14) | 0.33 µM | 
5 | Cc1cccc(C[C@@H]2NC(=O)[C@H](CC(=O)O)NC(=O)[C@H](Cc3ccc(-c4ccc(C(=O)O)cc4)cc3)NC(=O)[C@H](CN3CCOCC3)NC(=O)CSC[C@@H](C(=O)N[C@@H](CCN)C(N)=O)NC(=O)[C@H](CO)NC(=O)[C@H](C(C)(C)O)NC(=O)[C@H](CC3CCCCC3)NC(=O)[C@H](CC(N)=O)NC(=O)[C@@H](CC(C)C)NC(=O)[C@H](C)N(C)C(=O)[C@H](Cc3ccc(OCC(=O)O)cc3)NC(=O)[C@H](Cc3ccc(-c4ccccc4)cc3)NC(=O)[C@H](Cc3ccc(-c4ccc(C(=O)O)cc4)cc3)NC2=O)c1 [Example 5130] ({CH2CO}-[Ala(morpholin-4-yl)][Bip(4'-COOH)]D[Phe(3-Me)][Bip(4'-COOH)][Bip]Y(Carboxymethyl)[NMeA][dL]N[Cha][Val(3-OH)]SC[Dab]-NH2; thioether N-14) | 0.06 µM | 
6 | Cc1cccc(C[C@@H]2NC(=O)[C@H](CC(=O)O)NC(=O)[C@H](Cc3ccc(OCC(=O)O)cc3)NC(=O)[C@H](CN3CCOCC3)NC(=O)CSC[C@@H](C(=O)N[C@@H](CCN)C(N)=O)NC(=O)[C@H](CCCO)NC(=O)[C@H](C(C)C)NC(=O)[C@H](CC3CCCCC3)NC(=O)[C@H](CCN)NC(=O)[C@@H](CC(C)C)NC(=O)[C@H](C)N(C)C(=O)[C@H](CCC(N)=O)NC(=O)[C@H](Cc3ccc(-c4ccccc4)cc3)NC(=O)[C@H](Cc3cccc(-c4ccc(N)nc4)c3)NC2=O)c1 [Example 5100] ({CH2CO}-[Ala(morpholin-4-yl)]Y(Carboxymethyl)D[Phe(3-Me)][X17][Bip]Q[NMeA][dL][Dab][Cha]V[Nva(5-OH)]C[Dab]-NH2; thioether N-14) | 0.27 µM | 

Further lines, results first:

Row | IC50 [1] | IC50 (nM, read-out: CBA Method 3) | SMILES
7 | 0.3 µM |  | Cc1cccc(C[C@@H]2NC(=O)[C@H](CC(=O)O)NC(=O)[C@H](Cc3ccc(OCC(=O)O)cc3)NC(=O)[C@H](CN)NC(=O)CSC[C@@H](C(=O)N[C@@H](CCN)C(N)=O)NC(=O)[C@H](CCCN)NC(=O)[C@H](C(C)C)NC(=O)[C@H](CC3CCCCC3)NC(=O)[C@H](CCN)NC(=O)[C@@H](CC(C)C)NC(=O)[C@H](C)N(C)C(=O)[C@H](CCC(N)=O)NC(=O)[C@H](Cc3ccc(-c4ccccc4)cc3)NC(=O)[C@H](Cc3ccc(C(=O)O)cc3)NC2=O)c1 [Example 5178] ({CH2CO}-[Dap]Y(Carboxymethyl)D[Phe(3-Me)][Phe(4-COOH)][Bip]Q[NMeA][dL][Dab][Cha]V[Orn]C[Dab]-NH2; thioether N-14)
8 | 0.01 µM |  | Cc1cccc(C[C@@H]2NC(=O)[C@H](CC(=O)O)NC(=O)[C@H](Cc3ccc(C(=O)O)cc3)NC(=O)[C@H](CN3CCOCC3)NC(=O)CSC[C@@H](C(=O)N[C@@H](CCN)C(N)=O)NC(=O)[C@H](CCC(=O)O)NC(=O)[C@H](C(C)C)NC(=O)[C@H](CC3CCCCC3)NC(=O)[C@H](CCN)NC(=O)[C@@H](CC(C)C)NC(=O)[C@H](C)N(C)C(=O)[C@H](Cc3ccc(C(=O)O)cc3)NC(=O)[C@H](Cc3ccc(-c4ccccc4)cc3)NC(=O)[C@H](Cc3ccc(C(=O)O)cc3)NC2=O)c1 [Example 5259] ({CH2CO}-[Ala(morpholin-4-yl)][Phe(4-COOH)]D[Phe(3-Me)][Phe(4-COOH)][Bip][Phe(4-COOH)][NMeA][dL][Dab][Cha]VEC[Dab]-NH2; thioether N-14)
9 | 0.01 µM |  | Cc1cccc(C[C@@H]2NC(=O)[C@H](CC(=O)O)NC(=O)[C@H](Cc3ccc(OCC(=O)O)cc3)NC(=O)[C@H](Cc3cccc(CN)c3)NC(=O)CSC[C@@H](C(=O)N[C@@H](CCN)C(N)=O)NC(=O)[C@H](CCCN)NC(=O)[C@H](C(C)C)NC(=O)[C@H](CC3CCCCC3)NC(=O)[C@H](CCN)NC(=O)[C@@H](CC(C)C)NC(=O)[C@H](C)N(C)C(=O)[C@H](CCC(N)=O)NC(=O)[C@H](Cc3ccc(-c4ccccc4)cc3)NC(=O)[C@H](Cc3ccc(C(=O)O)cc3)NC2=O)c1 [Example 5176] ({CH2CO}-[Phe(3-CH2NH2)]Y(Carboxymethyl)D[Phe(3-Me)][Phe(4-COOH)][Bip]Q[NMeA][dL][Dab][Cha]V[Orn]C[Dab]-NH2; thioether N-14)
10 | 0.1 µM |  | CC(C)C[C@H]1NC(=O)[C@H](C)N(C)C(=O)[C@H](CCC(N)=O)NC(=O)[C@H](Cc2ccc(-c3ccccc3)cc2)NC(=O)[C@H](CCc2ccccc2)NC(=O)[C@H](Cc2cccc(C(F)(F)F)c2)NC(=O)[C@H](CC(=O)O)NC(=O)[C@H](Cc2ccc(OCC(=O)O)cc2)NC(=O)[C@H]([C@@H](C)N)NC(=O)CSC[C@@H](C(=O)N[C@@H](CCN)C(N)=O)NC(=O)[C@H](CCCN)NC(=O)[C@H](C(C)C)NC(=O)[C@H](CC2CCCCC2)NC(=O)[C@H](CCN)NC1=O [Example 5219] ({CH2CO}-[Abu(3R-NH2)]Y(Carboxymethyl)D[Phe(3-CF3)][hPhe][Bip]Q[NMeA][dL][Dab][Cha]V[Orn]C[Dab]-NH2; thioether N-14)
11 | 0.04 µM |  | Cc1cccc(C[C@@H]2NC(=O)[C@H](CC(=O)O)NC(=O)[C@H](Cc3ccc(OCC(=O)O)cc3)NC(=O)[C@H](CC3CCCCC3)NC(=O)CSC[C@@H](C(=O)N[C@@H](CCN)C(N)=O)NC(=O)[C@H](CCCN)NC(=O)[C@H](C(C)C)NC(=O)[C@H](Cc3ccccn3)NC(=O)[C@H](CCN)NC(=O)[C@@H](CC(C)C)NC(=O)[C@H](C)N(C)C(=O)[C@H](CCC(N)=O)NC(=O)[C@H](Cc3ccc(-c4ccccc4)cc3)NC(=O)[C@H](Cc3ccc(C(=O)O)cc3)NC2=O)c1 [Example 5194] ({CH2CO}-[Cha]Y(Carboxymethyl)D[Phe(3-Me)][Phe(4-COOH)][Bip]Q[NMeA][dL][Dab][2Pal]V[Orn]C[Dab]-NH2; thioether N-14)
12 |  | 0.0062 µM | Cc1cccc(C[C@@H]2NC(=O)[C@H](CC(=O)O)NC(=O)[C@H](Cc3ccc(C(=O)O)cc3)NC(=O)[C@H](CC3CCCCC3)NC(=O)CSC[C@@H](C(=O)N[C@@H](CCN)C(N)=O)NC(=O)[C@H](CCC(=O)O)NC(=O)[C@H](C(C)C)NC(=O)[C@H](CC3CCCCC3)NC(=O)[C@H](CCN)NC(=O)[C@@H](CC(C)C)NC(=O)[C@H](C)N(C)C(=O)[C@H](Cc3ccc(C(=O)O)cc3)NC(=O)[C@H](Cc3ccc(-c4ccccc4)cc3)NC(=O)[C@H](Cc3ccc(OCC(=O)O)cc3)NC2=O)c1 [Example 5201] ({CH2CO}-[Cha][Phe(4-COOH)]D[Phe(3-Me)]Y(Carboxymethyl)[Bip][Phe(4-COOH)][NMeA][dL][Dab][Cha]VEC[Dab]-NH2; thioether N-14)
